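Exposure lasted 48 hours, with cells grown in 96-well plates and compounds tested at five concentrations. TGI is the concentration that stops growth completely.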
Tests used:
Assay in all cases: growth of human tumour cells (NCI), 48 h
MDA-N = test system: MDA-N
HOP-92 NSCLC = test system: HOP-92 NSCLC
SF-295 CNS = test system: SF-295 CNS
U251 CNS = test system: U251 CNS
TK-10 renal = test system: TK-10 renal
SNB-19 CNS = test system: SNB-19 CNS
A498 renal = test system: A498 renal
SK-OV-3 ovarian = test system: SK-OV-3 ovarian
OVCAR-4 ovarian = test system: OVCAR-4 ovarian
EKVX NSCLC = test system: EKVX NSCLC
RXF 393 renal = test system: RXF 393 renal
NCI-H522 lung = test system: NCI-H522 lung
SK-MEL-5 melanoma = test system: SK-MEL-5 melanoma
UO-31 renal = test system: UO-31 renal
UACC-62 melanoma = test system: UACC-62 melanoma
LOX IMVI melanoma = test system: LOX IMVI melanoma
HOP-62 NSCLC = test system: HOP-62 NSCLC
SK-MEL-2 melanoma = test system: SK-MEL-2 melanoma
M14 melanoma = test system: M14 melanoma
T-47D breast = test system: T-47D breast
BT-549 breast = test system: BT-549 breast
OVCAR-8 ovarian = test system: OVCAR-8 ovarian
NCI-H226 lung = test system: NCI-H226 lung
MDA-MB-231 breast = test system: MDA-MB-231 breast
CCRF-CEM leukemia = test system: CCRF-CEM leukemia
A549 NSCLC = test system: A549 NSCLC
HS 578T breast = test system: HS 578T breast
HCT-116 colon = test system: HCT-116 colon
SW-620 colon = test system: SW-620 colon
NCI-H23 lung = test system: NCI-H23 lung
MDA-MB-435 = test system: MDA-MB-435
SF-539 CNS = test system: SF-539 CNS
OVCAR-3 ovarian = test system: OVCAR-3 ovarian
786-0 renal = test system: 786-0 renal
PC-3 prostate = test system: PC-3 prostate
CAKI-1 renal = test system: CAKI-1 renal
HCT-15 colon = test system: HCT-15 colon
HCC-2998 colon = test system: HCC-2998 colon
COLO 205 colon = test system: COLO 205 colon
SK-MEL-28 melanoma = test system: SK-MEL-28 melanoma
SNB-75 CNS = test system: SNB-75 CNS
MALME-3M melanoma = test system: MALME-3M melanoma
IGROV1 ovarian = test system: IGROV1 ovarian
SF-268 CNS = test system: SF-268 CNS
UACC-257 melanoma = test system: UACC-257 melanoma
SR leukemia = test system: SR leukemia
NCI-H460 lung = test system: NCI-H460 lung
MOLT-4 leukemia = test system: MOLT-4 leukemia
K-562 leukemia = test system: K-562 leukemia
ACHN renal = test system: ACHN renal
HT29 colon = test system: HT29 colon
RPMI-8226 leukemia = test system: RPMI-8226 leukemia
KM12 colon = test system: KM12 colon
DU-145 prostate = test system: DU-145 prostate
NCI/ADR-RES ovarian = test system: NCI/ADR-RES ovarian
OVCAR-5 ovarian = test system: OVCAR-5 ovarian
SN12C renal = test system: SN12C renal
MCF7 breast = test system: MCF7 breast

Which results are given for `C#CCn1ncc2c(SCc3ccccc3)ncnc21`?
TGI (MDA-N): > 100 µM; TGI (HOP-92 NSCLC): > 100 µM; TGI (SF-295 CNS): > 100 µM; TGI (U251 CNS): > 100 µM; TGI (TK-10 renal): > 100 µM; TGI (SNB-19 CNS): > 100 µM; TGI (A498 renal): > 100 µM; TGI (SK-OV-3 ovarian): > 100 µM; TGI (OVCAR-4 ovarian): > 100 µM; TGI (EKVX NSCLC): > 100 µM; TGI (RXF 393 renal): > 100 µM; TGI (NCI-H522 lung): > 100 µM; TGI (SK-MEL-5 melanoma): > 100 µM; TGI (UO-31 renal): > 100 µM; TGI (UACC-62 melanoma): > 100 µM; TGI (LOX IMVI melanoma): > 100 µM; TGI (HOP-62 NSCLC): > 100 µM; TGI (SK-MEL-2 melanoma): > 100 µM; TGI (M14 melanoma): > 100 µM; TGI (T-47D breast): 27.1 µM; TGI (BT-549 breast): > 100 µM; TGI (OVCAR-8 ovarian): > 100 µM; TGI (NCI-H226 lung): > 100 µM; TGI (MDA-MB-231 breast): > 100 µM; TGI (CCRF-CEM leukemia): > 100 µM; TGI (A549 NSCLC): > 100 µM; TGI (HS 578T breast): > 100 µM; TGI (HCT-116 colon): > 100 µM; TGI (SW-620 colon): > 100 µM; TGI (NCI-H23 lung): > 100 µM; TGI (MDA-MB-435): > 100 µM; TGI (SF-539 CNS): > 100 µM; TGI (OVCAR-3 ovarian): > 100 µM; TGI (786-0 renal): > 100 µM; TGI (PC-3 prostate): > 100 µM; TGI (CAKI-1 renal): > 100 µM; TGI (HCT-15 colon): > 100 µM; TGI (HCC-2998 colon): > 100 µM; TGI (COLO 205 colon): > 100 µM; TGI (SK-MEL-28 melanoma): > 100 µM; TGI (SNB-75 CNS): > 100 µM; TGI (MALME-3M melanoma): > 100 µM; TGI (IGROV1 ovarian): > 100 µM; TGI (SF-268 CNS): > 100 µM; TGI (UACC-257 melanoma): > 100 µM; TGI (SR leukemia): > 100 µM; TGI (NCI-H460 lung): > 100 µM; TGI (MOLT-4 leukemia): 39 µM; TGI (K-562 leukemia): > 100 µM; TGI (ACHN renal): > 100 µM; TGI (HT29 colon): > 100 µM; TGI (RPMI-8226 leukemia): > 100 µM; TGI (KM12 colon): > 100 µM; TGI (DU-145 prostate): > 100 µM; TGI (NCI/ADR-RES ovarian): > 100 µM; TGI (OVCAR-5 ovarian): > 100 µM; TGI (SN12C renal): > 100 µM; TGI (MCF7 breast): > 100 µM
